# ChEMBL document CHEMBL1128276, “Quinazoline antifolate thymidylate synthase inhibitors: replacement of glutamic acid in the C2-methyl series” (J Med Chem, 1995)
# What was measured:
# [1] = molecular target: T1, Thymidylate synthase (Mus musculus, UniProt P07607); assay: Inhibition of thymidylate synthase purified from mouse L1210 leukemia cells that overproduce thymidylate synthase (TS); assay type: cell-free
# [2] = system: L1210 (1565); assay: Relative resistance was measured in L1210:1565 cell line; assay type: functional, cell-based; settings: Mus musculus
# [3] = system: L1210; assay: Inhibition of L1210 cell growth; assay type: functional, cell-based; settings: Mus musculus
# [4] = system: L1210 (1565); assay: Concentration to inhibit cell growth was measured on L1210:1565 cell line; assay type: functional, cell-based; settings: Mus musculus
# [5] = system: L1210; assay: Ability to inhibit cell growth was measured on L1210 cells(horse serum); assay type: functional, cell-based; settings: Mus musculus
# [6] = molecular target: T1, Thymidylate synthase; assay: Ability to inhibit Thymidylate synthase purified from mouse L1210 leukemia cells that overproduce thymidylate synthase (TS)
# T1 sequence (P07607 whole entry): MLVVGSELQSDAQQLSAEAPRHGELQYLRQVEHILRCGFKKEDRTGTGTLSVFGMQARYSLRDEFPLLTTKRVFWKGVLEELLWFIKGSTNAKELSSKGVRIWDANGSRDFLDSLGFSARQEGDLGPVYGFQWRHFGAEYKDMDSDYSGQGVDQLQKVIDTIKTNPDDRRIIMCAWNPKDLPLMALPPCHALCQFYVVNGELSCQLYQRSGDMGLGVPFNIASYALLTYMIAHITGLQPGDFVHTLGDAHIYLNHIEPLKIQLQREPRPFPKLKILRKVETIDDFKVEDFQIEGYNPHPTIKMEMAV
Structure (SMILES),IC50 [1],IC50 [3],IC50 [4],IC50 [5],IC50 [6],Relative resistance [2]
C#CCN(Cc1cc2c(O)nc(C)nc2cc1C)c1ccc(C(=O)N[C@@H](C(=O)O)c2cccc([N+](=O)[O-])c2)c(F)c1,0.0044 µM,2.45 µM,1.25 µM,–,–,0.51 dimensionless ratio
C#CCN(Cc1ccc2nc(C)nc(O)c2c1)c1ccc(C(=O)NCc2ccccn2)cc1,0.45 µM,–,5 µM,3.9 µM,–,1.28 dimensionless ratio
C#CCN(Cc1ccc2nc(C)nc(O)c2c1)c1ccc(C(=O)N[C@H](CCC)C(=O)O)cc1,–,2.5 µM,34 µM,–,–,–
C#CCN(Cc1ccc2nc(C)nc(O)c2c1)c1ccc(C(=O)NCc2ccco2)cc1,1.42 µM,–,–,6 µM,–,–
C#CCN(Cc1cc2c(O)nc(C)nc2cc1C)c1ccc(C(=O)NCc2cncs2)c(F)c1,–,0.62 µM,0.24 µM,–,0.11 µM,0.39 dimensionless ratio
C#CCN(Cc1ccc2nc(C)nc(O)c2c1)c1ccc(C(=O)NCc2ccsc2)cc1,1.46 µM,5.5 µM,–,–,–,–
C#CCN(Cc1ccc2nc(C)nc(O)c2c1)c1ccc(C(=O)NCc2cccc(C(=O)O)c2)cc1,0.27 µM,–,–,85 µM,–,–
C#CCN(Cc1ccc2nc(C)nc(O)c2c1)c1ccc(C(=O)N[C@@H](C(=O)O)c2ccccc2)cc1,0.034 µM,15 µM,30 µM,–,–,2 dimensionless ratio
C#CCN(Cc1ccc2nc(C)nc(O)c2c1)c1ccc(C(=O)NCC(=O)O)cc1,0.52 µM,> 100 µM,–,–,–,–
C#CCN(Cc1ccc2nc(C)nc(O)c2c1)c1ccc(C(=O)NCc2cccc([N+](=O)[O-])c2)cc1,0.11 µM,–,0.4 µM,1.2 µM,–,0.37 dimensionless ratio
C#CCN(Cc1ccc2nc(C)nc(O)c2c1)c1ccc(C(=O)NC)cc1,4.2 µM,25 µM,–,–,–,–
C#CCN(Cc1ccc2nc(C)nc(O)c2c1)c1ccc(C(=O)NCc2ccoc2)cc1,1.38 µM,5.5 µM,–,–,–,–
C#CCN(Cc1ccc2nc(C)nc(O)c2c1)c1ccc(C(=O)NCC)cc1,22.9 µM,7.2 µM,–,–,–,–
C#CCN(Cc1ccc2nc(C)nc(O)c2c1)c1ccc(C(=O)N[C@@H](C(=O)O)c2cccc([N+](=O)[O-])c2)cc1,0.024 µM,9 µM,13 µM,–,–,1.4 dimensionless ratio
C#CCN(Cc1ccc2nc(C)nc(O)c2c1)c1ccc(C(=O)NCc2ccc(Cl)cc2)cc1,7.7 µM,–,–,70 µM,–,–
C#CCN(Cc1ccc2nc(C)nc(O)c2c1)c1ccc(C(=O)N[C@@H](C(=O)O)c2ccc(F)cc2)cc1,–,74 µM,–,–,0.089 µM,–
C#CCN(Cc1ccc2nc(C)nc(O)c2c1)c1ccc(C(=O)NCc2ccccc2[N+](=O)[O-])cc1,0.32 µM,–,7.5 µM,1.8 µM,–,4.2 dimensionless ratio
C#CCN(Cc1ccc2nc(C)nc(O)c2c1)c1ccc(C(=O)NCc2ccccc2)cc1,0.72 µM,4 µM,–,–,–,–
C#CCN(Cc1ccc2nc(C)nc(O)c2c1)c1ccc(C(=O)N[C@H](Cc2ccc([N+](=O)[O-])cc2)C(=O)O)cc1,0.042 µM,> 20 µM,–,–,–,–
C#CCN(Cc1ccc2nc(C)nc(O)c2c1)c1ccc(C(=O)NCc2ccc([N+](=O)[O-])cc2)cc1,0.32 µM,–,–,2.2 µM,–,–
C#CCN(Cc1ccc2nc(C)nc(O)c2c1)c1ccc(C(=O)N[C@@H](C(=O)O)c2cccc(O)c2)cc1,–,90 µM,–,–,0.16 µM,–
C#CCN(Cc1ccc2nc(C)nc(O)c2c1)c1ccc(C(=O)Nc2ccccc2)cc1,1.82 µM,11 µM,–,–,–,–
C#CCN(Cc1ccc2nc(C)nc(O)c2c1)c1ccc(C(=O)NCc2cscn2)cc1,–,8 µM,4.8 µM,–,1.72 µM,0.6 dimensionless ratio
C#CCN(Cc1ccc2nc(C)nc(O)c2c1)c1ccc(C(=O)N[C@H](Cc2ccccc2)C(=O)O)cc1,0.17 µM,41 µM,–,–,–,–
C#CCN(Cc1ccc2nc(C)nc(O)c2c1)c1ccc(C(=O)NCCC)cc1,2.26 µM,8.6 µM,–,–,–,–
C#CCN(Cc1ccc2nc(C)nc(O)c2c1)c1ccc(C(=O)NCc2nccs2)cc1,–,6 µM,5 µM,–,0.76 µM,0.83 dimensionless ratio
C#CCN(Cc1ccc2nc(C)nc(O)c2c1)c1ccc(C(=O)NCc2cccc(C#N)c2)cc1,0.28 µM,–,0.5 µM,1.5 µM,–,0.33 dimensionless ratio
C#CCN(Cc1ccc2nc(C)nc(O)c2c1)c1ccc(C(=O)N[C@H](C)C(=O)O)cc1,0.15 µM,25 µM,–,–,–,–

# The next lines start with results.
IC50 [1],IC50 [3],IC50 [4],IC50 [5],IC50 [6],Structure (SMILES),Relative resistance [2]
–,1.7 µM,2.91 µM,–,0.006 µM,C#CCN(Cc1cc2c(O)nc(C)nc2cc1C)c1ccc(C(=O)N[C@@H](C(=O)O)C(C)C)c(F)c1,1.71 dimensionless ratio
0.058 µM,0.96 µM,23 µM,–,–,C#CCN(Cc1ccc2nc(C)nc(O)c2c1)c1ccc(C(=O)N[C@@H](C(=O)O)C(C)C)cc1,23 dimensionless ratio
–,2.2 µM,40 µM,–,–,C#CCN(Cc1ccc2nc(C)nc(O)c2c1)c1ccc(C(=O)N[C@H](CCC(N)=O)C(=O)O)cc1,–
0.058 µM,2 µM,14 µM,–,–,C#CCN(Cc1ccc2nc(C)nc(O)c2c1)c1ccc(C(=O)N[C@@H](C(=O)O)C(C)(C)C)cc1,7 dimensionless ratio
–,0.62 µM,0.52 µM,–,0.114 µM,C#CCN(Cc1cc2c(O)nc(C)nc2cc1C)c1ccc(C(=O)NCc2ccccn2)c(F)c1,0.84 dimensionless ratio
–,0.88 µM,5.28 µM,–,0.007 µM,C#CCN(Cc1cc2c(O)nc(C)nc2cc1C)c1ccc(C(=O)N[C@@H](C(=O)O)C(C)(C)C)c(F)c1,6 dimensionless ratio
–,0.23 µM,0.09 µM,–,0.048 µM,C#CCN(Cc1cc2c(O)nc(C)nc2cc1C)c1ccc(C(=O)NCc2cccc(C#N)c2)c(F)c1,0.38 dimensionless ratio
–,0.66 µM,0.5 µM,–,0.1 µM,C#CCN(Cc1cc2c(O)nc(C)nc2cc1C)c1ccc(C(=O)NCc2nccs2)c(F)c1,0.76 dimensionless ratio
–,1.7 µM,1.6 µM,–,0.77 µM,C#CCN(Cc1ccc2nc(C)nc(O)c2c1)c1ccc(C(=O)NCc2nc(C)cs2)cc1,0.91 dimensionless ratio
0.044 µM,0.21 µM,0.18 µM,–,–,C#CCN(Cc1cc2c(O)nc(C)nc2cc1C)c1ccc(C(=O)NCc2cccc([N+](=O)[O-])c2)c(F)c1,0.86 dimensionless ratio
0.009 µM,0.08 µM,5.92 µM,–,–,C#CCN(Cc1cc2c(O)nc(C)nc2cc1C)c1ccc(C(=O)N[C@H](CCC(=O)O)C(=O)O)c(F)c1,74 dimensionless ratio
–,0.09 µM,8.2 µM,–,–,C#CCN(Cc1ccc2nc(C)nc(O)c2c1)c1ccc(C(=O)N[C@H](CCC(=O)O)C(=O)O)cc1,–
0.86 µM,1.1 µM,0.4 µM,–,–,C#CCN(Cc1ccc2nc(C)nc(O)c2c1)c1ccc(C(=O)NCc2cncs2)cc1,0.36 dimensionless ratio
